This assay concerns the target T1, SyrB2 halogenase (Pseudomonas syringae pv. syringae, UniProt Q9RBY6).
T1 construct: His-tag (inferred from the pET-28a(+) vector and Ni HisTrap purification); made in house; host or cells: E. coli BL21-Gold (DE3)
Nature of the assay: Fluorination assay of Thr by SyrB2 halogenase with ligator (LC-MS/MS). In kind it is biochemical. The protocol: In an anaerobic glovebag (98% N2/2% H2, Coy Laboratories), all plasticware, solutions, and solids were allowed to equilibrate overnight before use. Stock solutions of RXN buffer (20 mM HEPES, pH=7.5), 20G (100 mM in RXN buffer, pH=7.5), NOG (150 mM in RXN buffer, pH=7.5), and Milli-Q water were degassed using a vacuum manifold on a Schlenk Line apparatus. At least three cycles of vacuum and subsequent equilibration with Argon gas were performed before transfer to the glovebag. Halide Salts (NaCl, NaF) and ferrous ammonium sulfate (FAS) were transferred to the glovebag the day before use.
Stock SyrB1-PPT-Thr and SyrB2 were thawed on ice-water and centrifuged to remove any possible precipitate. Stock proteins were diluted in RXN buffer and transferred to individual ReactiVials (Thermo) sealed with septa on a pre-cooled ReactiBlock (Thermo). Protein was deoxygenated by piercing the ReactiVials with needles and purging the headspace with a continuous flow of Argon gas for 1 hr while continuously stirring the protein solution on ice bath. Reactivials were sealed and transferred to the glovebag. While deoxygenating the protein, halide salts were dissolved in RXN buffer in the glovebag. To individual 1.7 mL tubes, RXN buffer, ligand (NOG or 2OG), and halide (NaCl or NaF) were added and cooled to 4° C. The ReactiVials containing the proteins were sealed and transferred to the glovebag. […]

Each structure is given as a SMILES string.

T1 sequence (Q9RBY6 whole entry): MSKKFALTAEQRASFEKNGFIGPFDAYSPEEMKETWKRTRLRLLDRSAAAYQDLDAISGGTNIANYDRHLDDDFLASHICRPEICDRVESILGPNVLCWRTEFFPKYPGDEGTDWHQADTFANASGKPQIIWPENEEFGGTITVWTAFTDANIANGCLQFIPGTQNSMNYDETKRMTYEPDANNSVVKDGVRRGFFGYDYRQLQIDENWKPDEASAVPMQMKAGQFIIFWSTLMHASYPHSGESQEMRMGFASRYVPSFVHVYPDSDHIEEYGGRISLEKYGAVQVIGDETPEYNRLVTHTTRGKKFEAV

Turning to `O=C(O)CNC(=O)C(=O)O` [NOG, N-oxalylglycine], the “side products (hydroxylated substrates) observed” value (in some of the reaction conditions with ligator) was “little to no side products”. Also, the “fluorination of Thr amino acid by SyrB2 halogenase” value (ligator 1 mM, NaF 10 mM, LC-MS/MS (FIG. 3)) is “enabling fluorination of Thr amino acid”.

For the origin of these results see patent US20230139056A1, “METHODS, COMPOSITIONS AND REAGENTS FOR PREPARING COMPOUNDS” (Regents of the University of Minnesota, priority 2021, published 2023).
